Results taken from patent US10736932B2, “Small molecule Ras inhibitors” (Ohio State Innovation Foundation, priority 2014, dated 2020).
“And” between values parts separate entries of the source, which are not always exact repeats. Equal entries are not always repeated. Where two headings read alike, the source gives them in different places. Each block holds one compound with its values, some of them ahead of it. Numbered stars: 1 amine (or outer) side, 2 acyl side, 3 side chain; on linkers, the order of the positions; unused ones are H or OH. Bridge positions count the residues as written; N and C are the ends. Square brackets hold non-standard residues; d marks the D form. Peptide text beside a SMILES is read from it. * marks the point of attachment. ξ: configuration not given here. Lys(5-FITC)NH2 = NC(=O)[C@H](CCCCNC(=S)Nc1ccc2c(c1)C(=O)OC21c2ccc(O)cc2Oc2cc(O)ccc21)N*; FITC = O=C1OC2(c3ccc(O)cc3Oc3cc(O)ccc32)c2ccc(NC(=S)*)cc21; dβ3h(hPhe) = O=C(C[C@@H](CCc1ccccc1)N[*:1])[*:2]; Phe(4-F) = N[C@@H](Cc1ccc(F)cc1)C(=O)O; d2Nal = N[C@H](Cc1ccc2ccccc2c1)C(=O)O; X1 = CC(C)(CO[*:2])C(=O)C(=O)[*:1]; ξ2Nal = NC(Cc1ccc2ccccc2c1)C(=O)O; dNle = CCCC[C@@H](N)C(=O)O; ξPip = O=C(O)C1CCCCN1

Assays:
[1] = test system: A549 cells
[2] = test system: H1299 lung cancer cells; type: cell-based; details: MTT assay
Method: MTT assays (17) were performed with H1299 lung cancer cells. One hundred μL of H1299 cells (0.5×10^5 cells/mL) were seeded in each well of a 96-well culture plate and allowed to grow overnight in Advanced RPMI medium supplemented with 10% fetal bovine serum (FBS) and 1% penicillin-streptomycin. Varying concentrations of cyclic peptide (0-25 μM) were added to the each well and the cells were incubated at 37° C. with 5% CO2 for 72 hours. Ten μL of a MTT stock solution (Roche) was added into each well. The plate was incubated at 37° C. for 4 h. Then 100 μL of SDS-HCl solubilizing buffer was added into each well, and the resulting solution was mixed thoroughly. The plate was incubated at 37° C. overnight. The absorbance of the formazan product was measured at 570 nm using a Molecular Devices Spectramax M5 plate reader. Each experiment was performed in triplicates and the cells without any peptide added were treated as control.

[3] = molecular target: T1, K-Ras / Raf RBD interaction (Homo sapiens, UniProt P01116, G12V); assay: HTRF assay, inhibition of Ras-Raf RBD interaction; type: binding; details: inhibition of Ras-Raf interaction; read-out: HTRF IC50;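 further: HTRF signal read after overnight incubation of the assay plate at 4 °C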
T1 construct: The G12V mutant K-Ras (amino acids 1-185) was recombinantly fused; GST (N, cleaved yes); made in house; host or cells: Escherichia coli BL21
T1 sequence (P01116 1-185 isoform P01116-2 G12V): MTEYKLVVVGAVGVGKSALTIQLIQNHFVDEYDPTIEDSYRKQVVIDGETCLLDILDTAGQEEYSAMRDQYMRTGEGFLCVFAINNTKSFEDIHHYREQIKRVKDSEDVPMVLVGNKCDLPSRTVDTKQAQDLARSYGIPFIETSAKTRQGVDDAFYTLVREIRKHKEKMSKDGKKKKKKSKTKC
Method: Recombinant HA-tagged K-Ras (no GST, 50 nM), GST-Raf RBD (50 nM each), a monoclonal anti-HA antibody labeled with acceptor d2 (2 μg/mL), a monoclonal anti-GST antibody labeled with donor Tb (0.25 μg/mL) (Cisbio), and increasing concentrations of cyclic peptide (0-20 μM) were mixed inPBS (total volume of 20 μL) in a 384-well plate. The plate was incubated overnight at 4° C. and the HTRF signal was measured on a Molecular Devices Spectramax M5 or a Tecan infinite M1000 Pro plate reader. The data were analyzed by Prism 6.0 from Graphpad Software, Inc. (La Jolla, Calif.) and IC50 values were obtained by fitting the data to dose-response-inhibition curve.

[4] = test system: A549 cells; assay: Cellular uptake of FITC-labeled peptides (live-cell confocal microscopy, FACS); details: A549 cells, 10 μM FITC-labeled peptide
[5] = inability to cross the cell membrane; cited from earlier work
[6] = molecular target: maltose-binding protein-XIAP BIR3 domain fusion (Homo sapiens, UniProt P98170); assay: FA binding of FITC-9A5 to control protein MBP-XIAP BIR3
maltose-binding protein-XIAP BIR3 domain fusion, sequence (P98170 241-356 limits assumed): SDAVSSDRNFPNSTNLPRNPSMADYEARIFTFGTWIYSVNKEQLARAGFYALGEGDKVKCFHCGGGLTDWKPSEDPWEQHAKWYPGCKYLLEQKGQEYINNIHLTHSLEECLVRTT

SMILES: C[C@H]1NC(=O)[C@H](CCCNC(=N)N)NC(=O)[C@H](Cc2c[nH]c3ccccc23)NC(=O)[C@H](CCCNC(=N)N)NC(=O)[C@H](Cc2ccc(F)cc2)NC(=O)[C@H](CCCNC(=N)N)NC(=O)[C@@H](Cc2ccc3ccccc3c2)NC(=O)[C@H](CCCNC(=N)N)NC(=O)[C@H](CCCNC(=N)N)NC(=O)[C@H](CCC(N)=O)NC1=O [Cyclorasin 12A, (Arg-Arg-nal-Arg-Fpa-Arg-Trp-Arg-ala-Gln)] (cyclo(RR[d2Nal]R[Phe(4-F)]RWR[dA]Q); ring closure inferred)
cell permeability [1]: cell permeable | anti-proliferative activity against lung cancer cells (in words) [2]: weak | IC50 [3]: 1 µM

SMILES: CCCC[C@H]1NC(=O)[C@H](Cc2ccc(F)cc2)NC(=O)[C@H](CCCNC(=N)N)NC(=O)[C@@H](Cc2ccc3ccccc3c2)NC(=O)[C@H](CCCNC(=N)N)NC(=O)[C@H](CCCNC(=N)N)NC(=O)[C@H](CCC(=O)N[C@@H](CCCCNC(=S)Nc2ccc3c(c2)C(=O)OC32c3ccc(O)cc3Oc3cc(O)ccc32)C(N)=O)NC(=O)[C@@H](C)NC(=O)[C@H]([C@@H](C)O)NC(=O)[C@H](Cc2c[nH]c3ccccc23)NC(=O)[C@@H](CO)NC1=O [Cyclorasin 9A, (Arg-Arg-nal-Arg-Fpa-nle-ser-Trp-Thr-ala-Gln)] (cyclo(RR[d2Nal]R[Phe(4-F)][dNle][dS]WT[dA]E(Lys(5-FITC)NH2)))
cell permeability ([4]; 1.5 h): cell permeable | anti-proliferative activity against lung cancer cells (in words) [2]: weak | IC50 [3]: 0.65 ± 0.11 µM

SMILES: CCCC[C@H]1NC(=O)[C@H](Cc2ccc(F)cc2)NC(=O)[C@H](CCCN=C(N)N)NC(=O)C(Cc2ccc3ccccc3c2)NC(=O)[C@H](CCCN=C(N)N)NC(=O)[C@H](CCCN=C(N)N)NC(=O)[C@H](CCC(N)=O)NC(=O)C[C@@H](CCc2ccccc2)NC(=O)C2CCCCN2C(=O)C(=O)C(C)(C)COC1=O (stereo partly shown) [Compound 12] ([ξPip][dβ3h(hPhe)]QRR[ξ2Nal]R[Phe(4-F)][dNle]; linker N-C via X1)
cellular activity [5]: lacked cellular activity

mean fluorescence intensity relative to FITC-9A54 (FACS) [4]: ~5 fold | Kd [6]: ~30 µM and 30 µM
SMILES: CCCC[C@H]1NC(=O)[C@H](Cc2ccc(F)cc2)NC(=O)[C@H](CCCNC(=N)N)NC(=O)[C@@H](Cc2ccc3ccccc3c2)NC(=O)[C@H](CCCCNC(=S)Nc2ccc3c(c2)C(=O)OC32c3ccc(O)cc3Oc3cc(O)ccc32)NC(=O)[C@H](CCCNC(=N)N)NC(=O)[C@H](CCCNC(=N)N)NC(=O)[C@@H](C)NC(=O)[C@H]([C@@H](C)O)NC(=O)[C@H](Cc2c[nH]c3ccccc23)NC(=O)[C@H](CCC(N)=O)NC1=O [FITC-9A5] (cyclo(K(FITC)[d2Nal]R[Phe(4-F)][dNle]QWT[dA]RR))
intracellular fluorescence pattern (confocal microscopy) ([4]; 15 min): intense, defuse fluorescence throughout the cytoplasm
